Laboratory results published in patent publication US20220064127A1, “PLATELET AGGREGATION INHIBITOR, PREPARATION AND USES THEREOF” (SHENYANG HINEWY PHARMACEUTICAL TECHNOLOGY CO., LTD., priority 2020, published 2022).
Where two headings read alike, the source gives them in different places.

Tested on: ADP-Induced Platelet Aggregation
Assay: Inhibition of ADP-induced platelet aggregation in rabbit platelet-rich plasma (microplate method)
Assay type: cell-based
Conditions: rabbit PRP, inducer ADP; for IC50: absorbance 655 nm, read-out: IC50 (Mean ± SE), ADP-induced platelet aggregation; for inhibition at 30 µM: read-out: Inhibition rate of target compounds on platelet aggregation at 30 μM
Experimental: Example 62 Investigation on Inhibition of ADP-Induced Platelet Aggregation in Rabbit
A blood sample was collected from ear vein of a healthy male rabbit, added with 3.8% sodium citrate for anticoagulation and then centrifuged at 800 r/min for 10 min to prepare platelet-rich plasma (PRP) and at 3,000 r/min for 10 min to prepare platelet-poor plasma (PPP). The investigation on the plasma should be performed within 0.5-3 h after the preparation.
2. Determination of Platelet Aggregation by Microplate Method
The drugs to be tested were weighed and added with an appropriate amount of DMSO to prepare a series of 10 mM stock solutions, which were respectively diluted to prepare 10× stock solutions with normal saline for further use.
Several wells of a microplate were selected as test wells, which were added with 135 μL of PRP and then respectively added with 15 μL of the 10× stock solutions. A well in which 135 μL of PRP and 15 μL of normal saline were added was used as the vehicle control, and a well in which 135 μL of PPP and 15 μL of normal saline were added was used as the blank control. Duplicate wells were set for each test well. The plate was shaken, incubated at 37° C. for 5 min, and then measured for A0 at 655 nm. Subsequently, the microplate was added with 15 μL of an inducer […] (ADP) working solution (25 μmol/L) in each well, incubated at 37° C. under shaking and measured at 655 nm for A1, where the incubation time was determined according to the time in the pre-experiment when the maximum aggregation appeared. The platelet aggregation rate (AR) and platelet aggregation inhibition rate (AIR) were calculated according to the following formulas:
AR=(1−ARtest sample/ARcontrol)

[1] = Oryctolagus cuniculus, Platelet

Row | SMILES | IC50 [1] [µM] | other results
1 | CCOC(=O)c1c(C)nc(-c2ccc(OCC(C)C)c(C#N)c2)n1O [LY-7a, ethyl 2-(3-cyano-4-isobutyloxy)phenyl-1-hydroxy-4-methyl-1H-imidazole-5-carboxylate] | – | IC50: 16.8 ± 0.874 µM
2 | CCOC(=O)c1c(C)nc(-c2ccc(OCC(C)C)c(C#N)c2)n1OC(C)=O [LY-8a, ethyl 1-acetoxy-2-(3-cyano-4-isobutoxyphenyl)-4-methyl-1H-imidazole-5-carboxylate] | 5.214 ± 0.0152 | –
3 | CCOC(=O)c1c(C)nc(-c2ccc(O)c(C#N)c2)n1O [LY-8b, ethyl 2-(3-cyano-4-hydroxyphenyl)-1-hydroxy-4-methyl-1H-imidazole-5-carboxylate] | 18.3 ± 1.03 | –
4 | CCOC(=O)c1c(C)nc(-c2ccccc2C#N)n1OC [LY-19, ethyl 4-methyl-2-(2-cyanophenyl)-1-methoxy-1H-imidazole-5-carboxylate] | 14.86 ± 0.0568 | –
5 | CCOC(=O)c1c(C)nc(-c2ccc(C#N)cc2)n1OC [LY-22, ethyl 4-methyl-2-(4-cyanophenyl)-1-methoxy-1H-imidazole-5-carboxylate] | 13.4 ± 1.03 | –
6 | CCOC(=O)c1c(C)nc(-c2ccccc2)n1OC [LY-25, ethyl 4-methyl-2-phenyl-1-methoxy-1H-imidazole-5-carboxylate] | – | inhibition at 30 µM [1]: 24.1%
7 | CCOCCOn1c(-c2cccc(C#N)c2)nc(C)c1C(=O)OCC [LY-26e, ethyl 2-(3-cyanophenyl)-1-(2-ethoxyethoxy)-4-methyl-1H-imidazole-5-carboxylate] | 6.25 ± 0.21 | –
8 | CCOC(=O)COn1c(-c2cccc(C#N)c2)nc(C)c1C(=O)OCC [LY-26g, ethyl 2-(3-cyanophenyl)-1-(2-ethoxy-2-oxoethoxy)-4-methyl-1H-imidazole-5-carboxylate] | 6.8 ± 0.152 | –
9 | CCOC(=O)c1c(C)nc(-c2cccc(C#N)c2)n1OCC(N)=O [LY-26h, ethyl 1-(2-amino-2-oxoethoxy)-2-(3-cyanophenyl)-4-methyl-1H-imidazole-5-carboxylate] | – | inhibition at 30 µM [1]: 18.9%
10 | CCOC(=O)c1c(C)nc(-c2cccc(C#N)c2)n1OCCC(=O)O [LY-26i, 3-{[2-(3-cyanophenyl)-5-(ethoxycarbonyl)-4-methyl-1H-imidazol-1-yl]oxy}propionic acid] | – | inhibition at 30 µM [1]: 24.4%
11 | CCOC(=O)c1c(C)nc(-c2cccc(C#N)c2)n1OCc1ccccc1F [LY-26l, ethyl 2-(3-cyanophenyl)-1-[(2-fluorobenzyl)oxy]-4-methyl-1H-imidazole-5-carboxylate] | 5.88 ± 0.196 | –
12 | CCOC(=O)c1c(C)nc(-c2cccc(C#N)c2)n1OCc1ccc(F)cc1 [LY-26n, ethyl 2-(3-cyanophenyl)-1-[(4-fluorobenzyl)oxy]-4-methyl-1H-imidazole-5-carboxylate] | 5.88 ± 0.196 | –
13 | CCOC(=O)c1c(C)nc(-c2cccc(C#N)c2)n1OCc1ccccc1Cl [LY-26o, ethyl 1-[(2-chlorobenzyl)oxy]-2-(3-cyanophenyl)-4-methyl-1H-imidazole-5-carboxylate] | 8.71 ± 0.242 | –
14 | CCOC(=O)c1c(C)nc(-c2cccc(C#N)c2)n1OCc1cccc(Cl)c1 [LY-26p, ethyl 1-[(3-chlorobenzyl)oxy]-2-(3-cyanophenyl)-4-methyl-1H-imidazole-5-carboxylate] | 19.4 ± 0.355 | –
15 | CCOC(=O)c1c(C)nc(-c2cccc(C#N)c2)n1OCc1ccc(C)cc1 [LY-26s, ethyl 2-(3-cyanophenyl)-4-methyl-1-[(4-methylbenzyl)oxy]-1H-imidazole-5-carboxylate] | 6.31 ± 0.399 | –
16 | CCOC(=O)c1c(C)nc(-c2cccc(C#N)c2)n1OCc1ccc(OC)cc1 [LY-26t, ethyl 2-(3-cyanophenyl)-1-[(4-methoxybenzyl)oxy]-4-methyl-1H-imidazole-5-carboxylate] | 6.83 ± 0.0856 | –
17 | CCOC(=O)c1c(C)nc(-c2cccc(C#N)c2)n1OCc1ccc(C(=O)OC)cc1 [LY-26u, ethyl 2-(3-cyanophenyl)-1-{[4-(methoxycarbonyl)benzyl]oxy}-4-methyl-1H-imidazole-5-carboxylate] | 9.47 ± 0.856 | –

Continued, in another order:

Row | IC50 [1] [µM] | SMILES | other results
18 | 19 ± 0.317 | CCOC(=O)c1c(C)nc(-c2ccc(OCc3ccccc3)c(C#N)c2)n1O [LY-7b, ethyl 2-(3-cyano-4-benzyloxy)phenyl-1-hydroxy-4-methyl-1H-imidazole-5-carboxylate] | –
19 | 17.6 ± 0.952 | CCOC(=O)c1c(C)nc(-c2cccc(C#N)c2)n1O [LY-10, ethyl 2-(3-cyanophenyl)-1-hydroxy-4-methyl-1H-imidazole-5-carboxylate] | –
20 | 7.865 ± 0.0365 | Cc1nc(-c2cccc(C#N)c2)n(O)c1C(=O)O [LY-11, 2-(3-cyanophenyl)-1-hydroxy-4-methyl-1H-imidazole-5-carboxylic acid] | –
21 | 21.9 ± 0.865 | CCOC(=O)c1c(C)nc(-c2cccc(-c3nnn[nH]3)c2)n1O [LY-13, ethyl 2-[3-(1H-tetrazol-5-yl)phenyl]-1-hydroxy-4-methyl-1H-imidazole-5-carboxylate] | –
22 | 22.1 ± 0.299 | CCOC(=O)c1c(C)nc(-c2cccc(-c3noc(=O)[nH]3)c2)n1O [LY-15, ethyl 1-hydroxy-4-methyl-2-[3-(5-oxo-4,5-dihydro-1,2,4-oxadiazol-3-yl)phenyl]-1H-imidazole-5-carboxylate] | –
23 | 19.87 ± 0.126 | CCOC(=O)c1c(-c2ccccc2)nc(-c2cccc(C#N)c2)n1O [LY-16, ethyl 2-(3-cyanophenyl)-1-hydroxy-4-phenyl-1H-imidazole-5-carboxylate] | –
24 | 9.13 ± 0.346 | CCOC(=O)c1c(C)nc(-c2cccc(C#N)c2)n1OC [LY-26a, ethyl 2-(3-cyanophenyl)-1-methoxy-4-methyl-1H-imidazole-5-carboxylate] | –
25 | 16.5 ± 1.07 | CCOC(=O)c1c(C)nc(-c2cccc(C#N)c2)n1OCC [LY-26b, ethyl 2-(3-cyanophenyl)-1-ethoxy-4-methyl-1H-imidazole-5-carboxylate] | –
26 | 6.74 ± 0.326 | CCOC(=O)c1c(C)nc(-c2cccc(C#N)c2)n1OC(C)C [LY-26c, ethyl 2-(3-cyanophenyl)-1-isopropoxy-4-methyl-1H-imidazole-5-carboxylate] | –
27 | 5.856 ± 0.0165 | C=CCOn1c(-c2cccc(C#N)c2)nc(C)c1C(=O)OCC [LY-26d, ethyl 1-(allyloxy)-2-(3-cyanophenyl)-4-methyl-1H-imidazole-5-carboxylate] | –
28 | 11.4 ± 0.213 | CCOC(=O)c1c(C)nc(-c2cccc(C#N)c2)n1OCCCO [LY-26f, ethyl 2-(3-cyanophenyl)-1-(3-hydroxypropoxy)-4-methyl-1H-imidazole-5-carboxylate] | –
29 | 6.196 ± 0.0526 | CCOC(=O)c1c(C)nc(-c2cccc(C#N)c2)n1OCc1ccncc1 [LY-26j, ethyl 2-(3-cyanophenyl)-4-methyl-1-(pyridin-4-methoxy)-1H-imidazole-5-carboxylate] | –
30 | 5.93 ± 0.265 | CCOC(=O)c1c(C)nc(-c2cccc(C#N)c2)n1OCc1ccccc1 [LY-26k, ethyl 1-(benzyloxy)-2-(3-cyanophenyl)-4-methyl-1H-imidazole-5-carboxylate] | –
31 | 22.4 ± 1.36 | CCOC(=O)c1c(C)nc(-c2cccc(C#N)c2)n1OCc1cccc(F)c1 [LY-26m, ethyl 2-(3-cyanophenyl)-1-[(3-fluorobenzyl)oxy]-4-methyl-1H-imidazole-5-carboxylate] | –
32 | 6.83 ± 0.265 | CCOC(=O)c1c(C)nc(-c2cccc(C#N)c2)n1OCc1ccc(Cl)cc1 [LY-26q, ethyl 1-[(4-chlorobenzyl)oxy]-2-(3-cyanophenyl)-4-methyl-1H-imidazole-5-carboxylate] | –
33 | 24.6 ± 0.895 | CCOC(=O)c1c(C)nc(-c2cccc(C#N)c2)n1OCc1ccc(Br)cc1 [LY-26r, ethyl 1-[(4-bromobenzyl)oxy]-2-(3-cyanophenyl)-4-methyl-1H-imidazole-5-carboxylate] | –
